Test results taken from paper PMC6556873, “Rapid Covalent-Probe Discovery by Electrophile-Fragment Screening” (Journal of the American Chemical Society, 2019).
Like-named read-outs stand apart in the source and are kept apart here.

Legend:
in vitro [1] = experiment: in vitro; design: species or system HB2, HEK293; details: human, ccd841 cells
OTUB2 (OTUB2A) = molecular target: T1, OTUB2 (OTUB2A) (Homo sapiens, UniProt Q96DC9); design: Intact protein LC/MS covalent labelling, fragments in pools of five, 200 uM each, 4 °C; details: 24 h, 4 °C, pool of five; 200 µM; covalent
T1 construct: full length residues 1-234, E. coli BL21(DE3)-R3, His tag removed by TEV, construct 27312 Da
T1 sequence (Q96DC9 1-234): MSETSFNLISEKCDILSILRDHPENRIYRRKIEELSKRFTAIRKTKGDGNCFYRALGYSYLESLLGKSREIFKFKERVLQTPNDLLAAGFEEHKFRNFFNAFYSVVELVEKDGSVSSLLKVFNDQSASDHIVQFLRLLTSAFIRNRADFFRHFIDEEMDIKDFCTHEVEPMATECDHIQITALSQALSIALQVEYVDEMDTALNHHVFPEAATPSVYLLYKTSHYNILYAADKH

PCAF = molecular target: T2, PCAF (Homo sapiens, UniProt Q92831); design: Intact protein LC/MS covalent labelling, fragments in pools of five, 200 uM each, 4 °C; details: 24 h, 4 °C, pool of five; 200 µM; covalent
T2 construct: gene KAT2B
T2 sequence (Q92831 whole entry, the tested form may be a part): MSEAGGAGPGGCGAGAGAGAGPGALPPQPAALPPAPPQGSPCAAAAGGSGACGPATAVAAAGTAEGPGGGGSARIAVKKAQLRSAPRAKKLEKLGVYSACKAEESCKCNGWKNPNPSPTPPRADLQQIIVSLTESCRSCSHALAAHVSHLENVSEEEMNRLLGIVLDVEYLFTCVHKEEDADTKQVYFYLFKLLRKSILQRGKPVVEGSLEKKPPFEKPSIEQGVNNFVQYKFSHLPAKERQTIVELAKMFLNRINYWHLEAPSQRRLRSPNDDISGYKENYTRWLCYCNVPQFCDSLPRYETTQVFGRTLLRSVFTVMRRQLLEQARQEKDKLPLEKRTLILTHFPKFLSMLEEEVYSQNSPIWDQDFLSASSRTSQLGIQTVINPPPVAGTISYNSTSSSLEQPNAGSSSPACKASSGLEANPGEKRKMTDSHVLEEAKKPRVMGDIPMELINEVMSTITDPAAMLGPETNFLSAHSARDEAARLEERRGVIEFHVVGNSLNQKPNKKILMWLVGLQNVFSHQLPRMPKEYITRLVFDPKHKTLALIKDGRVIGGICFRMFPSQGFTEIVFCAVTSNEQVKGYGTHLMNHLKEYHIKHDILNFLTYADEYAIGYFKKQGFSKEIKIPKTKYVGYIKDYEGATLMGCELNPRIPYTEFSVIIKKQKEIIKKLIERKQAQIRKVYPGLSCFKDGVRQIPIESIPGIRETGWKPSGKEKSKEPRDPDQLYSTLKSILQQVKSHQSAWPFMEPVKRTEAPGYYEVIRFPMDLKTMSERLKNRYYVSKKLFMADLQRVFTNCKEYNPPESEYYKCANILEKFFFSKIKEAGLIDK

NUDT7 = molecular target: T3, NUDT7 (Homo sapiens, UniProt P0C024); design: Intact protein LC/MS covalent labelling, fragments in pools of five, 200 uM each, 4 °C; details: 24 h, 4 °C, pool of five; 200 µM; covalent
T3 construct: residues 14-235, E. coli, pNIC28-Bsa4, N-terminal His6 tag removed by TEV, construct 26672 Da
T3 sequence (P0C024 14-235): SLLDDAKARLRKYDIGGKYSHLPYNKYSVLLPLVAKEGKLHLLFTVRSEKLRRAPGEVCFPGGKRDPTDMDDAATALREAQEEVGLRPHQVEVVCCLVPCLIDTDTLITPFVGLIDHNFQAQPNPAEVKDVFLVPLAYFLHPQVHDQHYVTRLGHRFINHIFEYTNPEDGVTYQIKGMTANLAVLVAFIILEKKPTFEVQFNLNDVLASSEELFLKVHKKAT

BSA = molecular target: T4, BSA (Bos taurus, UniProt P02769); design: Intact protein LC/MS covalent labelling, fragments in pools of five, 200 uM each, 4 °C; details: 24 h, 4 °C, pool of five; 200 µM; covalent
T4 construct: gene ALB
T4 sequence (P02769 whole entry, the tested form may be a part): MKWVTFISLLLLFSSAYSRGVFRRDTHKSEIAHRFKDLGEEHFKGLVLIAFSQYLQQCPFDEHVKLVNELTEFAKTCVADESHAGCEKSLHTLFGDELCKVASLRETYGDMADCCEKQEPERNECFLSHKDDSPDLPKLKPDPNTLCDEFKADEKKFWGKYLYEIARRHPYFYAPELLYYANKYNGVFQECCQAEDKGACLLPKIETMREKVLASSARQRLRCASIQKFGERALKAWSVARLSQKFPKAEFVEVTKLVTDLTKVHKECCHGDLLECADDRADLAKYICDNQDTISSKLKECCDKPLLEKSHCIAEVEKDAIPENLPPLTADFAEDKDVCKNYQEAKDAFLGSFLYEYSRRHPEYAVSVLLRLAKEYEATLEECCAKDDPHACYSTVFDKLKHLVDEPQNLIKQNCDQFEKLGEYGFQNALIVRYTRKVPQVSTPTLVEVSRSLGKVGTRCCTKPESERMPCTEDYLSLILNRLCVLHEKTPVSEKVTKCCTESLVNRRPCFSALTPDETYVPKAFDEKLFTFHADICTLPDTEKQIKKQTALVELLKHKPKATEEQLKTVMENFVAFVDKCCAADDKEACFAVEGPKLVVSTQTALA

in vitro [2] = experiment: in vitro; design: species or system CCD841, HEK293; details: human, hb2 cells, read-out: HB-2 Cells Viability (%)
in vitro [3] = experiment: in vitro; design: species or system HB2, CCD841; details: human, hek293 cells

SMILES	OTUB2 (OTUB2 (OTUB2A))	PCAF (PCAF)	NUDT7 (NUDT7)	BSA (BSA)	viability at 48 h, 10 µM (in vitro [1]) [%]	viability at 48 h, 10 µM (in vitro [2]) [%]	viability at 48 h, 10 µM (in vitro [3]) [%]
C=CC(=O)N1CCC(n2ncc3ccccc32)C1 (stereo not drawn) [PCM-0102966]	0.42	0	0	0	95.1	105	86.3
CS(C)(=O)=NC(=O)CCl [PCM-0102969]	0	0	0	0	97.5	96.1	102
CC(c1cc2ccccc2o1)N(C)C(=O)CCl (stereo not drawn) [PCM-0102971]	0	0	0.66	0	34.1	13.3	10.1
CC(C)N(C)C(=O)C1CCN(C(=O)CCl)CC1 [PCM-0102974]	0	0	0	0	84	86.7	79.8
CN(C(=O)CCl)c1nccs1 [PCM-0102975]	0	0	0	0	118	99.8	97
CCN(C(=O)CCl)c1ccccc1C [PCM-0102980]	0	0	0.43	0.07	85.7	93.4	66.1
CC(C)(C)OC(=O)CNC(=O)CCl [PCM-0102981]	0	0	0	0.18	109	106	106
C=CC(=O)NCc1cc2sccc2s1 [PCM-0102986]	0.08	0	0	0	111	98.7	78.6
CN(Cc1nc2ccccc2s1)C(=O)CCl [PCM-0102988]	0	0	0.3	0	42.8	9.3	2.9
O=C(CCl)N1CCN(C(=O)C2COc3ccccc3O2)CC1 (stereo not drawn) [PCM-0102996]	0.13	0	0	0	56.4	19.8	5.8
O=C(CCl)NNC(=O)CC1CCS(=O)(=O)C1 (stereo not drawn) [PCM-0102998]	0.69	0	0	0	100	101	112
C=CC(=O)N1CCN(C(=O)C2COc3ccccc3O2)CC1 (stereo not drawn) [PCM-0102999]	0	0	0	0	112	100	88.3
O=C(CCl)NC(=O)NC1CCCC1 [PCM-0103001]	0	0	0	0	80.2	66.4	66.7
C=CC(=O)N1Cc2ccccc2CC1c1nnc(CC)o1 (stereo not drawn) [PCM-0103005]	0	0	0	0	79.4	96.8	93.2
O=C1CN(C(=O)CCl)CCN1 [PCM-0103008]	0	0	0	0	92.8	95.3	86.5
Cc1ccccc1C(=O)NC1CCN(C(=O)CCl)CC1 [PCM-0103013]	0	0	0	0.1	76.5	84.4	58.4
CC(C)C(=O)NNC(=O)CCl [PCM-0103014]	0.09	0	0	0	95.1	98.8	126
O=C(CCl)N1CCN(c2ccccc2[N+](=O)[O-])CC1 [PCM-0103016]	0.09	0	0.27	0.16	61.4	8.7	13.4
Cc1ccc(CN(C)C(=O)CCl)cc1 [PCM-0103017]	0	0	0.09	0	73.9	67.7	58.2
CC1CCC(N(C)C(=O)CCl)CC1 (stereo not drawn) [PCM-0103019]	0	0	0	0	40.7	39.2	39.9
CC(C)(C)C(=O)NC(=O)CCl [PCM-0103021]	0	0	0	0	116	105	98.9

Now from value to compound, other results behind:

OTUB2 (OTUB2 (OTUB2A))	PCAF (PCAF)	NUDT7 (NUDT7)	BSA (BSA)	SMILES	viability at 48 h, 10 µM (in vitro [1]) [%]	viability at 48 h, 10 µM (in vitro [2]) [%]	viability at 48 h, 10 µM (in vitro [3]) [%]
0	0	0	0	Cc1sc(NC(=O)CCl)c(C)c1C [PCM-0102968]	57.3	16.1	2.3
0.75	0	0.11	0.19	Cc1ccc(CNC(=O)CCl)s1 [PCM-0102973]	90.8	98	106
0	0	0	0	COC(=O)c1cccc(NC(=O)CCl)n1 [PCM-0102977]	101	103	105
0.27	0	0	0.2	O=C(CCl)NNC(=O)c1ccco1 [PCM-0102985]	89.7	96.9	100
0	0	0.09	0	CN(Cc1cccc(C(F)(F)F)c1)C(=O)CCl [PCM-0102987]	45.2	5.3	6.7
0.08	0	0.11	0	O=C(CCl)Nc1ccc(Br)cc1 [PCM-0102992]	52.9	12.2	4.4
0	0	0	0	C=CC(=O)Nc1ccc(OC)c(F)c1 [PCM-0102995]	106	104	80.5
0.26	0	0	0	O=C(CCl)Nc1ccc(F)cc1F [PCM-0103004]	62.1	54.2	32
0	0	0.14	0	CC(=O)c1cc2c(cc1NC(=O)CCl)OCO2 [PCM-0103010]	86	59.9	69.5
0.84	0	0	0	O=C(CCl)NCC#Cc1cccc(C(F)(F)F)c1 [PCM-0103011]	77.4	56.8	52.5
0.1	0	0	0	NS(=O)(=O)c1ccc(Cl)c(NC(=O)CCl)c1 [PCM-0103012]	67.1	54.7	11.9
0	0	0	0	O=C(CCl)NCC1Cc2ccccc2O1 (stereo not drawn) [PCM-0103020]	88.9	99.1	87.1
